Measured values from patent publication US20260035411A1, “CRYSTALLINE FORMS OF A PCSK9 INHIBITOR, COMPOSITIONS AND USES” (MERCK SHARP & DOHME LLC, priority 2022, published 2026).
Entries after “also recorded” stand apart in the source; their conditions may differ. Like-named read-outs stand apart in the source and are kept apart here.

How the values were obtained:
[1] = XRPD analysis before and after adsorption/desorption cycles (physical stability, crystallinity); assay type: physicochemical
Protocol: X-ray powder diffraction studies are widely used to characterize molecular structures, crystallinity, and polymorphism. The X-ray powder diffraction patterns disclosed herein were generated on a Philips Analytical X′Pert PRO X-ray Diffraction System with PW3040/60 console. A PW3373/00 ceramic Cu LEF X-ray tube K-Alpha radiation was used as the source.
In addition, the chloride salt requires −20° C. storage to minimize chemical degradation while the acetate and caprate salts are less prone to degradation at higher temperatures. […] The stability of crystalline forms of the compounds of Formula I were characterized by XRPD under relative humidity conditions that simulate potential storage conditions.

[2] = Adsorption/desorption cycles under relative humidity (weight increase, hygroscopicity)

COc1ccc(C[C@@H]2NC(=O)[C@H]([C@@H](C)O)NC(=O)[C@@H]3[C@@H]4CCN3C(=O)[C@@H]3Cc5cn(c6ccc(F)cc56)CCCCCCN(Cc5ccc(cc5)CCNC(=O)[C@]5(C)CCCN5C2=O)C(=O)CCC(=O)N[C@@H](C)C(=O)N[C@H](CNC(=O)CCCCC[N+](C)(C)C)C(=O)N[C@@H](Cc2cccc(c2)CNC(=O)CO4)C(=O)N3)cc1 [Acetate 4]
crystallinity by XRPD after adsorption/desorption ([1]; 5-95-5% RH adsorption/desorption cycle (FIG. 31B, 33B)): loses crystallinity
crystallinity by XRPD after adsorption/desorption ([1]; two adsorption/desorption cycles of 5-55% RH (FIG. 30B)): retains minimal crystallinity; also recorded: decrease in crystallinity
hysteresis during the desorption step ([2]; 5-95% RH cycle (FIG. 31A)): Hysteresis is observed
increase in weight ([2]; at 55% RH (FIG. 30A)): ~9%
increase in weight ([2]; at 95% RH (FIG. 31A, 33A)): ~40%

COc1ccc(C[C@@H]2NC(=O)[C@H]([C@@H](C)O)NC(=O)[C@@H]3[C@@H]4CCN3C(=O)[C@@H]3Cc5cn(c6ccc(F)cc56)CCCCCCN(Cc5ccc(cc5)CCNC(=O)[C@]5(C)CCCN5C2=O)C(=O)CCC(=O)N[C@@H](C)C(=O)N[C@H](CNC(=O)CCCCC[N+](C)(C)C)C(=O)N[C@@H](Cc2cccc(c2)CNC(=O)CO4)C(=O)N3)cc1 [Caprate 3]
crystallinity by XRPD after adsorption/desorption [1]: maintains its crystallinity; also recorded: retains crystallinity
increase in weight [2]: ~4.9%
relative humidity by which H2O is readily absorbed [2]: 25-35 % RH
relative humidity until which H2O is not lost [2]: 15 % RH

COc1ccc(C[C@@H]2NC(=O)[C@H]([C@@H](C)O)NC(=O)[C@@H]3[C@@H]4CCN3C(=O)[C@@H]3Cc5cn(c6ccc(F)cc56)CCCCCCN(Cc5ccc(cc5)CCNC(=O)[C@]5(C)CCCN5C2=O)C(=O)CCC(=O)N[C@@H](C)C(=O)N[C@H](CNC(=O)CCCCC[N+](C)(C)C)C(=O)N[C@@H](Cc2cccc(c2)CNC(=O)CO4)C(=O)N3)cc1 [Caprate 5]
crystallinity by XRPD after adsorption/desorption [1]: retains some crystallinity; also recorded: loses crystallinity; also recorded: decrease in crystallinity
hysteresis during the desorption steps [2]: Slight hysteresis is observed

COc1ccc(C[C@@H]2NC(=O)[C@H]([C@@H](C)O)NC(=O)[C@@H]3[C@@H]4CCN3C(=O)[C@@H]3Cc5cn(c6ccc(F)cc56)CCCCCCN(Cc5ccc(cc5)CCNC(=O)[C@]5(C)CCCN5C2=O)C(=O)CCC(=O)N[C@@H](C)C(=O)N[C@H](CNC(=O)CCCCC[N+](C)(C)C)C(=O)N[C@@H](Cc2cccc(c2)CNC(=O)CO4)C(=O)N3)cc1 [water-free Caprate 3]
crystallinity by XRPD after adsorption/desorption [1]: retains crystallinity
increase in weight [2]: ~9.4%
